# Where two headings read alike, the source gives them in different places.
# Legend:
# Assay type in all cases: biochemical
# PIM1 = PIM1 (Homo sapiens (Human), UniProt P11309); assay: biochemical
# Method: (§1) A fluorescent-labeled Pim-specific peptide substrate, was custom synthesized by American Peptide Company (Sunnyvale, Calif.). Reaction Buffer contained 10 mM HEPES, pH 7.2, 10 mM MgCl2, 0.01% Tween 20, 2 mM DTT. Termination Buffer contained 190 mM HEPES, pH 7.2, 0.015% Brij-35, 0.2% Coating Reagent 3 (Caliper Life Sciences, Hopkinton, Mass.), 20 mM EDTA. Separation Buffer contained 100 mM HEPES, pH 7.2, 0.015% Brij-35, 0.1% Coating Reagent 3, 1:200 Coating Reagent 8 (Caliper Life Sciences, Hopkinton, Mass.), 10 mM EDTA and 5% DMSO.
# (§2) PIM reactions were carried out in a final volume of 10 μL per well in a 384-well plate. […] After 90 minutes of incubation at room temperature, the phosphorylation reaction was stopped by the addition of 10 μL Termination Buffer. The product and substrate in each independent reaction were separated on a 12-sipper microfluidic chip (Caliper Life Sciences, Hopkinton, Mass.) run on a Caliper LC3000® (Caliper Life Sciences, Hopkinton, Mass.). The separation of product and substrate was optimized by choosing voltages and pressure using Caliper's Optimizer software (Hopkinton, Mass.). […] Substrate conversion was calculated from the electropherogram using HTS Well Analyzer software (Caliper Life Sciences, Hopkinton, Mass.). Ki values for the test compound were calculated.
# PIM3 = PIM3 (Homo sapiens (Human), UniProt Q86V86); assay: Pim kinase binding activity, Caliper LC3000 microfluidic peptide phosphorylation assay, PIM3; settings: 10 μM ATP, 90 min, room temperature; read-out: PIM3 LC3K (KI)
# Method: as §1, §2
# PIM2 = PIM2 (Homo sapiens (Human), UniProt Q9P1W9); assay: Pim kinase binding activity, Caliper LC3000 microfluidic peptide phosphorylation assay, PIM2; settings: 10 μM ATP, 90 min, room temperature; read-out: PIM2 LC3K (KI)
# Method: as §1, §2
# [1] = 10 μM ATP, 90 min, room temperature, read-out: PIM1 LC3K (KI)
# PIM1, sequence (P11309 whole entry): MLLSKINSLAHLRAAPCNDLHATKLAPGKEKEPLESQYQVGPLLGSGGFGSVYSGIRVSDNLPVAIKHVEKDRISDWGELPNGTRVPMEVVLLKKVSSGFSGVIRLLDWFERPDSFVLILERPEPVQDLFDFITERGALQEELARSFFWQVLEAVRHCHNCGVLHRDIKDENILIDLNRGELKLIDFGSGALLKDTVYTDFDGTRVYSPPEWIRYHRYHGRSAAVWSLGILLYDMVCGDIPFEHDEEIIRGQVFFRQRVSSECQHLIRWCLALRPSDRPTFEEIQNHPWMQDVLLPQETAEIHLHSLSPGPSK
# PIM2, sequence (Q9P1W9 whole entry): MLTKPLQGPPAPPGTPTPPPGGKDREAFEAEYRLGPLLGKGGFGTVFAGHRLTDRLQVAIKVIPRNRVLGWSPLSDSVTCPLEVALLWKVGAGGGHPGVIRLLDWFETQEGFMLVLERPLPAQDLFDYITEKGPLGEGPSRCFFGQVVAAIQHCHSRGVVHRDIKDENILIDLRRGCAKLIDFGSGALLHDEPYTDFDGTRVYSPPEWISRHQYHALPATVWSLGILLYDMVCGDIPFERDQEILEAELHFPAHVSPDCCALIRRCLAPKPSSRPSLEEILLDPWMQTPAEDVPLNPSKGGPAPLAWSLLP
Ki (PIM1; [1]) [nM],Ki (PIM3) [nM],Ki (PIM2) [nM],Ki (PIM1) [nM],SMILES
3.47,2.46,28.3,,"CCn1cc(-c2cc3c(cn2)cnn3-c2cccc(N3CCC(O)CC3)n2)cn1 [Compound 129, 1-(6-(6-(1-ethyl-1H-pyrazol-4-yl)-1H-pyrazolo[4,3-c]pyridin-1-yl)pyridin-2-yl)piperidin-4-ol]"
0.58,0.385,15.9,,"CCn1cc(-c2cc3c(cn2)cnn3-c2cccc(N3CCNC(C)(C)C3)n2)cn1 [Compound 131, 1-(6-(3,3-dimethylpiperazin-1-yl)pyridin-2-yl)-6-(1-ethyl-1H-pyrazol-4-yl)-1H-pyrazolo[4,3-c]pyridine]"
1.56,0.87,19.3,,"CCn1cc(-c2cc3c(cn2)cnn3-c2cccc(N3CCC(N)CC3)n2)cn1 [Compound 132, 1-(6-(6-(1-ethyl-1H-pyrazol-4-yl)-1H-pyrazolo[4,3-c]pyridin-1-yl)pyridin-2-yl)piperidin-4-amine]"
,0.267,4.29,,"Cc1cncc(-c2cc3c(cn2)cnn3-c2cccc(N3CCC[C@H](N)C3=O)n2)n1 [Compound 225, (3S)-3-amino-1-[6-[6-(6-methylpyrazin-2-yl)pyrazolo[4,3-c]pyridin-1-yl]-2-pyridyl]piperidin-2-one]"
0.053,,0.242,,"Cc1cncc(-c2cc3c(cn2)cnn3-c2cccc(C3CNCCC3(F)F)n2)n1 (stereo not drawn) [Compound 259, 1-[6-(4,4-difluoro-3-piperidyl)-2-pyridyl]-6-(6-methylpyrazin-2-yl)pyrazolo[4,3-c]pyridine]"
11.5,,149,,"Cn1cc(-c2cc3c(cn2)cnn3-c2cccc(N3CC4(CNC4)C3)n2)cn1 [Compound 268, 1-(6-(2,6-Diazaspiro[3.3]heptan-2-yl)pyridin-2-yl)-6-(1-methyl-1H-pyrazol-4-yl)-1H-pyrazolo[4,3-c]pyridine]"
,,43.2,16.3,"Cc1cncc(-c2cc3c(cn2)cnn3-c2ccc(=O)n([C@@H]3CCCNC3)n2)n1 [Compound 290, (R)-6-(6-(6-methylpyrazin-2-yl)-1H-pyrazolo[4,3-c]pyridin-1-yl)-2-(piperidin-3-yl)pyridazin-3(2H)-one]"
,0.235,3.43,,"CNc1cccc(-n2ncc3cnc(-c4cncc(C)n4)cc32)n1 [Compound 297, N-methyl-6-(6-(6-methylpyrazin-2-yl)-1H-pyrazolo[4,3-c]pyridin-1-yl)pyridin-2-amine]"
,20.1,183,,"Cc1cncc(-c2cc3c(cn2)cnn3-c2cccc(C(=O)N3CCC[C@H](N)C3)n2)n1 [Compound 302, (S)-(3-aminopiperidin-1-yl)(6-(6-(6-methylpyrazin-2-yl)-1H-pyrazolo[4,3-c]pyridin-1-yl)pyridin-2-yl)methanone]"
,15.6,193,,"Cc1cncc(-c2cc3c(cn2)cnn3-c2cccc(C(=O)N3CCC[C@@H](N)C3)n2)n1 [Compound 303, (R)-(3-aminopiperidin-1-yl)(6-(6-(6-methylpyrazin-2-yl)-1H-pyrazolo[4,3-c]pyridin-1-yl)pyridin-2-yl)methanone]"
,0.4,4.31,,"c1ccc(-n2ncc3cnc(-c4cncc(NC5CNC5)n4)cc32)nc1 [Compound 308, N-(azetidin-3-yl)-6-(1-(pyridin-2-yl)-1H-pyrazolo[4,3-c]pyridin-6-yl)pyrazin-2-amine]"

# Further lines, the compound ahead of its results:
SMILES,Ki (PIM1; [1]) [nM],Ki (PIM3) [nM],Ki (PIM2) [nM],Ki (PIM1) [nM]
"Cc1ccc(-n2ncc3cnc(-c4cnn(CC(F)(F)F)c4)cc32)nc1N1CCNC[C@H](O)C1 (single isomer, unassigned) [Compound 263]",0.253,0.536,6.51,
"Cn1cc(-c2cc3c(cn2)cnn3-c2cccc(N3CCNCC3)n2)cn1 [Compound 102, 6-(1-methyl-1H-pyrazol-4-yl)-1-(6-(piperazin-1-yl)pyridin-2-yl)-1H-pyrazolo[4,3-c]pyridine]",0.623,,12.1,
"c1cc(N2CCNCC2)nc(-n2ncc3cnc(-c4cncc(C5CC5)c4)cc32)c1 [Compound 111, 6-(5-cyclopropylpyridin-3-yl)-1-(6-(piperazin-1-yl)pyridin-2-yl)-1H-pyrazolo[4,3-c]pyridine]",0.165,0.181,9.11,
"C[C@H]1CN(c2cccc(-n3ncc4cnc(-c5cncc(C6COC6)c5)cc43)n2)CCN1 [Compound 113, (S)-1-(6-(3-methylpiperazin-1-yl)pyridin-2-yl)-6-(5-(oxetan-3-yl)pyridin-3-yl)-1H-pyrazolo[4,3-c]pyridine]",0.107,0.186,10.1,
"c1cc(N2CCNCC2)nc(-n2ncc3cnc(-c4cncc(C5COC5)c4)cc32)c1 [Compound 114, 6-(5-(oxetan-3-yl)pyridin-3-yl)-1-(6-(piperazin-1-yl)pyridin-2-yl)-1H-pyrazolo[4,3-c]pyridine]",0.479,0.652,16.9,
"OC1CNCCN(c2cccc(-n3ncc4cnc(-c5cncc(C6CC6)c5)cc43)n2)C1 (stereo not drawn) [Compound 115, 1-(6-(6-(5-cyclopropylpyridin-3-yl)-1H-pyrazolo[4,3-c]pyridin-1-yl)pyridin-2-yl)-1,4-diazepan-6-ol]",0.155,0.306,14.9,
"OC1CNCCN(c2cccc(-n3ncc4cnc(-c5cncc(C6COC6)c5)cc43)n2)C1 (stereo not drawn) [Compound 116, 1-(6-(6-(5-(oxetan-3-yl)pyridin-3-yl)-1H-pyrazolo[4,3-c]pyridin-1-yl)pyridin-2-yl)-1,4-diazepan-6-ol]",0.294,0.405,27.6,
"c1cc(N2CCCNCC2)nc(-n2ncc3cnc(-c4cncc(C5COC5)c4)cc32)c1 [Compound 118, 1-(6-(1,4-diazepan-1-yl)pyridin-2-yl)-6-(5-(oxetan-3-yl)pyridin-3-yl)-1H-pyrazolo[4,3-c]pyridine]",0.08,0.117,9.04,
"Cc1cc(-c2cc3c(cn2)cnn3-c2cccc(N3CCNCC3)n2)sn1 [Compound 119, 3-methyl-5-[1-(6-piperazin-1-yl-2-pyridyl)pyrazolo[4,3-c]pyridin-6-yl]isothiazole]",0.426,0.307,8.49,
"CCn1cc(-c2cc3c(cn2)cnn3-c2cccc(N3CCN[C@@H](C)C3)n2)cn1 [Compound 126, (S)-6-(1-ethyl-1H-pyrazol-4-yl)-1-(6-(3-methylpiperazin-1-yl)pyridin-2-yl)-1H-pyrazolo[4,3-c]pyridine]",0.349,0.349,7.36,
"CCn1cc(-c2cc3c(cn2)cnn3-c2cccc(N3CC[C@H](O)C3)n2)cn1 [Compound 127, (S)-1-(6-(6-(1-ethyl-1H-pyrazol-4-yl)-1H-pyrazolo[4,3-c]pyridin-1-yl)pyridin-2-yl)pyrrolidin-3-ol]",3.04,1.31,,
"CCn1cc(-c2cc3c(cn2)cnn3-c2cccc(N3CC[C@@H](O)C3)n2)cn1 [Compound 128, (R)-1-(6-(6-(1-ethyl-1H-pyrazol-4-yl)-1H-pyrazolo[4,3-c]pyridin-1-yl)pyridin-2-yl)pyrrolidin-3-ol]",7.22,4.39,,
"Cc1cncc(-c2cc3c(cn2)cnn3-c2cccc(OC3CCCC(N)C3)n2)n1 (stereo not drawn) [Compound 310, 3-(6-(6-(6-methylpyrazin-2-yl)-1H-pyrazolo[4,3-c]pyridin-1-yl)pyridin-2-yloxy)cyclohexanamine]",1.64,1.63,,

# — US9434725B2, “5-azaindazole compounds and methods of use” (priority 2012, dated 2016)
